Reference: PubChem BioAssay AID256 (DTP/NCI, 2004)
Inconclusive results and toxic doses are left out. Rule for the calls: active = survival T/C of 150% or more; inactive = T/C below 125% in these data.

System: CD2F1 mice, L1210 leukemia ip, survival T/C
Assay: NCI In Vivo Anticancer Drug Screen. Data for tumor model L1210 Leukemia (intraperitoneal) in CD2F1 (CDF1) mice
Details: higher = longer survival
Method in brief: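 Activity against a transplanted murine tumor was judged by comparing the compound group with a vehicle group. The outcome in the treated animals was divided by that in the controls.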

[1] = endpoint: mean survival time, dose: 100.0 mg/kg/injection, schedule: Q04DX003 (ip), vehicle: saline with Tween-80
[2] = endpoint: mean survival time, dose: 200.0 mg/kg/injection, schedule: Q04DX003 (ip), vehicle: saline with Tween-80
[3] = endpoint: mean survival time, dose: 100.0 mg/kg/injection, schedule: Q04DX002 (ip), vehicle: saline with Tween-80
[4] = endpoint: mean survival time, dose: 200.0 mg/kg/injection, schedule: Q04DX002 (ip), vehicle: saline with Tween-80
[5] = endpoint: mean survival time, dose: 400.0 mg/kg/injection, schedule: Q04DX002 (ip), vehicle: saline with Tween-80

Measured: T/C

NC(N)=N/N=C/c1c(O)ccc2ccccc12
inactive: endpoint: mean survival time, dose: 31.25 mg/kg/injection, schedule: Q01DX010 (oral), vehicle: saline 102 % of control | endpoint: mean survival time, dose: 62.5 mg/kg/injection, schedule: Q01DX010 (oral), vehicle: saline 108 % of control | endpoint: mean survival time, dose: 125.0 mg/kg/injection, schedule: Q01DX010 (oral), vehicle: saline 101 % of control

CNC(C)C(O)c1ccc(O)cc1 (centres undefined)
inactive: endpoint: mean survival time, dose: 50.0 mg/kg/injection, schedule: Q01DX001 (ip), vehicle: carboxymethylcellulose (CMC) 112 % of control | endpoint: mean survival time, dose: 100.0 mg/kg/injection, schedule: Q01DX001 (ip), vehicle: carboxymethylcellulose (CMC) 108 % of control | endpoint: mean survival time, dose: 200.0 mg/kg/injection, schedule: Q01DX001 (ip), vehicle: carboxymethylcellulose (CMC) 108 % of control | endpoint: mean survival time, dose: 400.0 mg/kg/injection, schedule: Q01DX001 (ip), vehicle: carboxymethylcellulose (CMC) 104 % of control

COc1ccc(C2=CC(=O)N(C(C)C)C2=O)cc1
inactive: endpoint: mean survival time, dose: 25.0 mg/kg/injection, schedule: Q04DX003 (ip), vehicle: saline with Tween-80 116 % of control | endpoint: mean survival time, dose: 50.0 mg/kg/injection, schedule: Q04DX003 (ip), vehicle: saline with Tween-80 93 % of control | [1] 98 % of control | [2] 108 % of control

Cc1ccc(S(=O)(=O)OCCOCCOCCOS(=O)(=O)c2ccc(C)cc2)cc1
inactive: [1] 101 % of control | [2] 101 % of control | endpoint: mean survival time, dose: 400.0 mg/kg/injection, schedule: Q04DX003 (ip), vehicle: saline with Tween-80 101 % of control

COC(=O)c1cccn1C(=O)c1ccc(C)c(OCc2ccccc2)c1[N+](=O)[O-]
inactive: [3] 86 % of control | [4] 93 % of control | [5] 93 % of control

COc1ccc(S(=O)[O-])cc1.C[c-]1[c-][c-][c-][c-]1.[C-]#[O+].[C-]#[O+].[Fe+6]
inactive: endpoint: mean survival time, dose: 6.25 mg/kg/injection, schedule: Q04DX002 (ip), vehicle: other 95 % of control | endpoint: mean survival time, dose: 12.5 mg/kg/injection, schedule: Q04DX002 (ip), vehicle: other 114 % of control | endpoint: mean survival time, dose: 25.0 mg/kg/injection, schedule: Q04DX002 (ip), vehicle: other 100 % of control

CCCCCCCCCCCCCCCCCC(CCCCCCCC)CCCCCCCC
inactive: endpoint: mean survival time, dose: 100.0 mg/kg/injection, schedule: Q01DX001 (ip), vehicle: saline 96 % of control | endpoint: mean survival time, dose: 200.0 mg/kg/injection, schedule: Q01DX001 (ip), vehicle: saline 94 % of control | endpoint: mean survival time, dose: 400.0 mg/kg/injection, schedule: Q01DX001 (ip), vehicle: saline 91 % of control

COC(=O)NC(=O)c1cn[nH]n1
inactive: endpoint: mean survival time, dose: 12.5 mg/kg/injection, schedule: Q01DX009 (ip), vehicle: other 98 % of control | endpoint: mean survival time, dose: 25.0 mg/kg/injection, schedule: Q01DX009 (ip), vehicle: other 103 % of control | endpoint: mean survival time, dose: 50.0 mg/kg/injection, schedule: Q01DX009 (ip), vehicle: other 97 % of control | endpoint: mean survival time, dose: 100.0 mg/kg/injection, schedule: Q01DX009 (ip), vehicle: other 101 % of control | endpoint: mean survival time, dose: 200.0 mg/kg/injection, schedule: Q01DX009 (ip), vehicle: other 95 % of control

[NH-]C(CCC(N)=O)C(=O)O.[NH-]C(CCC(N)=O)C(=O)O.[Zn+2] (centres undefined)
inactive: endpoint: median survival time, dose: 6.25 mg/kg/injection, schedule: Q01DX009 (ip), vehicle: saline with Tween-80 102 % of control | endpoint: median survival time, dose: 12.5 mg/kg/injection, schedule: Q01DX009 (ip), vehicle: saline with Tween-80 101 % of control | endpoint: median survival time, dose: 25.0 mg/kg/injection, schedule: Q01DX009 (ip), vehicle: saline with Tween-80 96 % of control | endpoint: median survival time, dose: 50.0 mg/kg/injection, schedule: Q01DX009 (ip), vehicle: saline with Tween-80 101 % of control

COc1ccc(/C=C(/C#N)C(N)=O)cc1Br
inactive: endpoint: mean survival time, dose: 50.0 mg/kg/injection, schedule: Q01DX009 (ip), vehicle: acetone 96 % of control | endpoint: mean survival time, dose: 100.0 mg/kg/injection, schedule: Q01DX009 (ip), vehicle: acetone 98 % of control | endpoint: mean survival time, dose: 200.0 mg/kg/injection, schedule: Q01DX009 (ip), vehicle: acetone 93 % of control

Cc1ccc(-c2cc(O)cc(-c3ccc(C)cc3C)c2O)c(C)c1
inactive: endpoint: mean survival time, dose: 400.0 mg/kg/injection, schedule: Q01DX001 (ip), vehicle: saline with Tween-80 91 % of control

CC(C)C1CCC(C)C(C(CC(=O)c2ccccc2)c2ccccc2)C1=O (centres undefined)
inactive: [3] 97 % of control | [4] 90 % of control | [5] 101 % of control
